Where two headings read alike, the source gives them in different places.
Assays:
[1] = biological target: T1, second (BD2: amino acids E352-E168) bromodomain of BRD4 (Homo sapiens, UniProt O60885); test: TR-FRET bromodomain binding assay, BRD4 BD2; conditions: Ki calculated from IC50, probe Kd and probe concentration, read-out: TR-FRET Binding Ki: BRD4 (BDII_E352-M457)
T1 construct: protocol
Protocol: (§1) A time-resolved fluorescence resonance energy transfer (TR-FRET) assay was used to determine the affinities of compounds of the Examples listed in Table 1 for each bromodomain of BRD4. His-tagged first (BD1: amino acids K57-E168) and second (BD2: amino acids E352-E168) bromodomains of BRD4 were expressed and purified. An Alexa647-labeled BET-inhibitor was used as the fluorescent probe in the assay.
(§2) Compound dilution series were prepared in DMSO via an approximately 3-fold serial dilution from one of the following:
(§3) or 5-fold serial dilution from one of the following:
(§4) Assay method A: 2.5 mM-800 nM
(§5) For Assay methods A, C, D, and F: Compounds were then diluted 6:100 in assay buffer (20 mM Sodium Phosphate, pH 6.0, 50 mM NaCl, 1 mM Ethylenediaminetetraacetic acid, 0.01% Triton X-100, 1 mM DL-Dithiothreitol) to yield 3× working solutions. […] of this solution were added to the assay plate to reach a final volume of 18 μL.
(§6) TR-FRET data were normalized to the means of 24 no-compound controls (“high”) and 8 controls containing 1 μM un-labeled probe (“low”). Percent inhibition was plotted as a function of compound concentration and the data were fit with the 4 parameter logistic equation to obtain IC50s. Inhibition constants (Ki) were calculated from the IC50s, probe Kd and probe concentration. Typical Z′ values were between 0.65 and 0.75.

[2] = biological target: T2, first (BD1: amino acids K57-E168) bromodomain of BRD4 (Homo sapiens, UniProt O60885); test: TR-FRET bromodomain binding assay, BRD4 BD1; conditions: Ki calculated from IC50, probe Kd and probe concentration, read-out: TR-FRET Binding Ki: BRD4 (BDI_K57-E168)
T2 construct: His-tagged first (BD1: amino acids K57-E168)
Protocol: as §1, §2, §3, §4, §5, §6

[3] = TR-FRET assay protocol (A-G, compound concentration range)
[4] = TR-FRET assay protocol (D, E or G) per compound

Compound: Cn1nc(-c2ccccc2Oc2ccccc2)c(-c2cncc(C(=O)NC3CCCC3)c2)cc1=O [Example 145, N-cyclopentyl-5-[1-methyl-6-oxo-3-(2-phenoxyphenyl)-1,6-dihydropyridazin-4-yl]pyridine-3-carboxamide]
- Ki [1, 3]: 10.2 µM
- Ki [2, 3]: > 13 µM

Compound: CN(C)C(=O)c1ccc(-c2cc(=O)n(C)nc2-c2ccccc2Oc2ccccc2)cc1 [Example 108, N,N-dimethyl-4-[1-methyl-6-oxo-3-(2-phenoxyphenyl)-1,6-dihydropyridazin-4-yl]benzamide]
- Ki [1, 3]: 0.327 µM
- Ki [2, 3]: 0.41 µM

Compound: Cn1nc(-c2ccccc2Oc2ccccc2)c(-c2ccc(S(=O)(=O)N3CCCC3)cc2)cc1=O [Example 178, 2-methyl-6-(2-phenoxyphenyl)-5-[4-(pyrrolidin-1-ylsulfonyl)phenyl]pyridazin-3(2H)-one]
- Ki [1, 3]: 4.54 µM
- Ki [2, 3]: 3.34 µM

Compound: CCOc1ccc(-c2cc(=O)n(C)nc2-c2ccccc2Oc2ccccc2)cc1F [Example 107, 5-(4-ethoxy-3-fluorophenyl)-2-methyl-6-(2-phenoxyphenyl)pyridazin-3(2H)-one]
- Ki [1, 3]: 2.58 µM
- Ki [2, 3]: 1.76 µM

Compound: Cn1nc(-c2ccccc2Oc2ccccc2)c(-c2ccc(C(O)c3ccccc3)cc2)cc1=O (stereo not drawn) [Example 76, 5-{4-[hydroxy(phenyl)methyl]phenyl}-2-methyl-6-(2-phenoxyphenyl)pyridazin-3(2H)-one]
- Ki [1, 3]: 1.28 µM
- Ki [2, 3]: 0.755 µM

Compound: CC(C)Cc1ccc(-c2cc(=O)n(C)nc2-c2ccccc2Oc2ccccc2)cc1 [Example 96, 2-methyl-5-[4-(2-methylpropyl)phenyl]-6-(2-phenoxyphenyl)pyridazin-3(2H)-one]
- Ki [1, 3]: 13.4 µM
- Ki [2, 3]: 8.33 µM

Compound: Cn1nc(-c2cc(C#N)ccc2Oc2ccccc2)ccc1=O [Example 13, 3-(1-methyl-6-oxo-1,6-dihydropyridazin-3-yl)-4-phenoxybenzonitrile]
- Ki [1, 3]: 10.2 µM
- Ki [2, 3]: 13.1 µM

Compound: CCOc1cc(=O)n(C)cc1-c1cc(NS(=O)(=O)c2ccc3ccccc3c2)ccc1Oc1ccc(F)cc1F [Example 418, N-[4-(2,4-difluorophenoxy)-3-(4-ethoxy-1-methyl-6-oxo-1,6-dihydropyridin-3-yl)phenyl]naphthalene-2-sulfonamide]
- Ki [1, 4]: 0.165 µM
- Ki [2, 4]: 0.362 µM

Compound: CCOc1cc(=O)n(C)cc1-c1cc(NS(=O)(=O)c2ccc(S(C)(=O)=O)cc2)ccc1Oc1ccc(F)cc1F [Example 307, N-[4-(2,4-difluorophenoxy)-3-(4-ethoxy-1-methyl-6-oxo-1,6-dihydropyridin-3-yl)phenyl]-4-(methylsulfonyl)benzenesulfonamide]
- Ki [1, 3]: 0.0416 µM
- Ki [2, 3]: 0.0949 µM

Compound: COc1cc(=O)n(C)nc1-c1ccccc1Oc1cccc(F)c1 [Example 36, 6-[2-(3-fluorophenoxy)phenyl]-5-methoxy-2-methylpyridazin-3(2H)-one]
- Ki [1, 3]: 4.43 µM
- Ki [2, 3]: 5.06 µM

Compound: CCS(=O)(=O)Nc1ccc(Oc2ccc(OC3CCN(C(=O)OC(C)(C)C)CC3)cc2F)c(-c2cn(C)c(=O)cc2OC2CCN(C(=O)OC(C)(C)C)CC2)c1 [Example 320, tert-butyl 4-[(5-{2-(4-{[1-(tert-butoxycarbonyl)piperidin-4-yl]oxy}-2-fluorophenoxy)-5-[(ethylsulfonyl)amino]phenyl}-1-methyl-2-oxo-1,2-dihydropyridin-4-yl)oxy]piperidine-1-carboxylate]
- Ki [1, 3]: 0.275 µM
- Ki [2, 3]: > 2.38 µM

Compound: Cn1nc(-c2ccccc2Oc2ccccc2)c(C2CCNCC2)cc1=O [Example 87, 2-methyl-6-(2-phenoxyphenyl)-5-(piperidin-4-yl)pyridazin-3(2H)-one]
- Ki [1, 3]: 3.09 µM
- Ki [2, 3]: 2.01 µM

Compound: Cn1nc(-c2ccccc2Oc2ccc(S(C)(=O)=O)cc2)ccc1=O [Example 8, 2-methyl-6-{2-[4-(methylsulfonyl)phenoxy]phenyl}pyridazin-3(2H)-one]
- Ki [1, 3]: 17.8 µM
- Ki [2, 3]: 8.59 µM

Compound: Cn1nc(-c2ccccc2Oc2ccccc2)c(-c2ccc(C(=O)NC3CCCCC3)cc2)cc1=O [Example 185, N-cyclohexyl-4-[1-methyl-6-oxo-3-(2-phenoxyphenyl)-1,6-dihydropyridazin-4-yl]benzamide]
- Ki [1, 3]: 0.324 µM
- Ki [2, 3]: 0.832 µM

Compound: Cc1nnc(-c2cccc(-c3cc(=O)n(C)nc3-c3ccccc3Oc3ccccc3)c2)o1 [Example 176, 2-methyl-5-[3-(5-methyl-1,3,4-oxadiazol-2-yl)phenyl]-6-(2-phenoxyphenyl)pyridazin-3(2H)-one]
- Ki [1, 3]: 2.08 µM
- Ki [2, 3]: 3.66 µM

Compound: Cn1nc(-c2ccccc2Oc2ccccc2)c(-c2ccc(C(=O)NCc3ccccc3)cc2)cc1=O [Example 182, N-benzyl-4-[1-methyl-6-oxo-3-(2-phenoxyphenyl)-1,6-dihydropyridazin-4-yl]benzamide]
- Ki [1, 3]: 0.174 µM
- Ki [2, 3]: 0.531 µM

Compound: Cn1nc(-c2ccccc2Oc2ccccc2)c(-c2cccc(NS(C)(=O)=O)c2)cc1=O [Example 120, N-{3-[1-methyl-6-oxo-3-(2-phenoxyphenyl)-1,6-dihydropyridazin-4-yl]phenyl}methanesulfonamide]
- Ki [1, 3]: 1.19 µM
- Ki [2, 3]: 0.611 µM

Compound: Cn1nc(-c2ccccc2Oc2ccccc2)c(-c2cccc(C(=O)NC3CC3)c2)cc1=O [Example 177, N-cyclopropyl-3-[1-methyl-6-oxo-3-(2-phenoxyphenyl)-1,6-dihydropyridazin-4-yl]benzamide]
- Ki [1, 3]: 1.07 µM
- Ki [2, 3]: 4.17 µM

Compound: COc1cc(=O)n(C)nc1-c1ccccc1OCC1CCN(C(=O)OC(C)(C)C)CC1 [Example 43, tert-butyl 4-{[2-(4-methoxy-1-methyl-6-oxo-1,6-dihydropyridazin-3-yl)phenoxy]methyl}piperidine-1-carboxylate]
- Ki [1, 3]: > 22.2 µM
- Ki [2, 3]: > 5.82 µM

Compound: Cn1nc(-c2cc(C(=O)O)ccc2Oc2ccccc2)ccc1=O [Example 15, 3-(1-methyl-6-oxo-1,6-dihydropyridazin-3-yl)-4-phenoxybenzoic acid]
- Ki [1, 3]: 16.3 µM
- Ki [2, 3]: 17.8 µM

Compound: CCS(=O)(=O)Nc1ccc(OCC2CC2)c(-c2ccc(=O)n(C)c2)c1C [Example 365, N-[4-(cyclopropylmethoxy)-2-methyl-3-(1-methyl-6-oxo-1,6-dihydropyridin-3-yl)phenyl]ethanesulfonamide]
- Ki [1, 3]: > 4.44 µM
- Ki [2, 3]: 1.35 µM

Compound: Cn1nc(-c2ccccc2Oc2ccccc2)c(-c2cnn(Cc3ccccc3)c2)cc1=O [Example 113, 5-(1-benzyl-1H-pyrazol-4-yl)-2-methyl-6-(2-phenoxyphenyl)pyridazin-3(2H)-one]
- Ki [1, 3]: 0.317 µM
- Ki [2, 3]: 0.407 µM

Compound: Cn1nc(-c2ccccc2Oc2ccccc2)c(-c2ccc3nsnc3c2)cc1=O [Example 137, 5-(2,1,3-benzothiadiazol-5-yl)-2-methyl-6-(2-phenoxyphenyl)pyridazin-3(2H)-one]
- Ki [1, 3]: 1.17 µM
- Ki [2, 3]: 3.26 µM

Compound: Cn1nc(-c2ccccc2Oc2ccccc2)c(-c2ccc(N3CCOCC3)nc2)cc1=O [Example 179, 2-methyl-5-[6-(morpholin-4-yl)pyridin-3-yl]-6-(2-phenoxyphenyl)pyridazin-3(2H)-one]
- Ki [1, 3]: 0.488 µM
- Ki [2, 3]: 0.923 µM

Compound: Cn1cc(-c2cc(NS(C)(=O)=O)ccc2Oc2ccc(F)cc2F)cc(Cl)c1=O [Example 282, N-[3-(5-chloro-1-methyl-6-oxo-1,6-dihydropyridin-3-yl)-4-(2,4-difluorophenoxy)phenyl]methanesulfonamide]
- Ki [1, 3]: 0.0997 µM
- Ki [2, 3]: 0.0204 µM

Compound: CCN(CC)C(=O)c1ccc(-c2cc(=O)n(C)nc2-c2ccccc2Oc2ccccc2)cc1 [Example 158, N,N-diethyl-4-[1-methyl-6-oxo-3-(2-phenoxyphenyl)-1,6-dihydropyridazin-4-yl]benzamide]
- Ki [1, 3]: 0.529 µM
- Ki [2, 3]: 0.604 µM

Compound: CCS(=O)(=O)c1ccc(OCC2CC2)c(-c2cc(NS(C)(=O)=O)c(=O)n(C)c2)c1 [Example 339, N-{5-[2-(cyclopropylmethoxy)-5-(ethylsulfonyl)phenyl]-1-methyl-2-oxo-1,2-dihydropyridin-3-yl}methanesulfonamide]
- Ki [1, 3]: 0.971 µM
- Ki [2, 3]: 0.172 µM

Compound: CN(C)C(=O)c1cncc(-c2cc(=O)n(C)nc2-c2ccccc2Oc2ccccc2)c1 [Example 215, N,N-dimethyl-5-[1-methyl-6-oxo-3-(2-phenoxyphenyl)-1,6-dihydropyridazin-4-yl]pyridine-3-carboxamide]
- Ki [1, 3]: 11.8 µM

Compound: Cn1cccc1-c1cc(=O)n(C)nc1-c1ccccc1Oc1ccccc1 [Example 194, 2-methyl-5-(1-methyl-1H-pyrrol-2-yl)-6-(2-phenoxyphenyl)pyridazin-3(2H)-one]
- Ki [1, 3]: 1.43 µM

Compound: CN1CCC(c2cc(=O)n(C)nc2-c2ccccc2Oc2ccccc2)CC1 [Example 88, 2-methyl-5-(1-methylpiperidin-4-yl)-6-(2-phenoxyphenyl)pyridazin-3(2H)-one]
- Ki [2, 3]: 6.79 µM

Reference: patent publication US9561231B2 (AbbVie Inc., priority 2012, dated 2017)
